# Assay results: the supplement of paper PMC10307832
# Assays:
# Test in all cases: relative viability (nuclei count vs DMSO), 5 days (fraction); higher = more cells survive
# NCI-H1915 = system: NCI-H1915
# In short: (§1)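 Lung cancer cell lines in 1536-well plates were dosed by pin tool the day after seeding, either with one drug alone or with a fixed anchor-drug dose plus five library-drug doses (not always all listed) in √10 steps. After 5 days, cells were fixed and their nuclei stained in one step (final 0.05% Triton X-100, 1% formaldehyde, 1 ug/ml Hoechst), then counted on 4× images. Relative viability is the nuclei count in treated wells divided by that in vehicle wells. Values are medians of duplicate plates.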
# NCI-H2347 = system: NCI-H2347
# In short: as §1
# UMC-11 = system: UMC-11
# In short: as §1
# HCC-44 = system: HCC-44
# In short: as §1
# LC-2-ad = system: LC-2-ad
# In short: as §1
# COR-L23 = system: COR-L23
# In short: as §1
# NCI-H1651 = system: NCI-H1651
# In short: as §1
# NCI-H2023 = system: NCI-H2023
# In short: as §1
# LU99A = system: LU99A
# In short: as §1
# PC-14 = system: PC-14
# In short: as §1
# HOP-62 = system: HOP-62
# In short: as §1
# SW 1573 = system: SW 1573
# In short: as §1
# NCI-H838 = system: NCI-H838
# In short: as §1
# NCI-H1993 = system: NCI-H1993
# In short: as §1
# EPLC-272H = system: EPLC-272H
# In short: as §1
# NCI-H2126 = system: NCI-H2126
# In short: as §1
# ABC-1 = system: ABC-1
# In short: as §1
# NCI-H1355 = system: NCI-H1355
# In short: as §1
# NCI-H2085 = system: NCI-H2085
# In short: as §1
# HARA = system: HARA
# In short: as §1
# HCC-15 = system: HCC-15
# In short: as §1
# NCI-H650 = system: NCI-H650
# In short: as §1
structure (smiles),measurement,setting,value
Nc1ccn([C@@H]2O[C@H](CO)[C@@H](O)[C@@H]2O)c(=O)n1 [Cytarabine] + O=C(CCCCCCC(=O)Nc1ccccc1)NO [Vorinostat] (partner 1 µM),relative viability,NCI-H1915; first compound 0.005 µM,0.477
same,relative viability,NCI-H1915; first compound 0.01581 µM,0.424
same,relative viability,NCI-H1915; first compound 0.05 µM,0.375
same,relative viability,NCI-H1915; first compound 0.1581 µM,0.318
same,relative viability,NCI-H1915; first compound 0.5 µM,0.235
same,relative viability,NCI-H2347; first compound 0.005 µM,0.531
same,relative viability,NCI-H2347; first compound 0.01581 µM,0.586
same,relative viability,NCI-H2347; first compound 0.05 µM,0.555
same,relative viability,NCI-H2347; first compound 0.1581 µM,0.498
same,relative viability,NCI-H2347; first compound 0.5 µM,0.409
same,relative viability,UMC-11; first compound 0.005 µM,0.285
same,relative viability,UMC-11; first compound 0.01581 µM,0.308
same,relative viability,UMC-11; first compound 0.05 µM,0.258
same,relative viability,UMC-11; first compound 0.1581 µM,0.19
same,relative viability,UMC-11; first compound 0.5 µM,0.183
same,relative viability,HCC-44; first compound 0.005 µM,1.2
same,relative viability,HCC-44; first compound 0.01581 µM,1.09
same,relative viability,HCC-44; first compound 0.05 µM,1.08
same,relative viability,HCC-44; first compound 0.1581 µM,0.973
same,relative viability,HCC-44; first compound 0.5 µM,0.948
same,relative viability,LC-2-ad; first compound 0.005 µM,0.766
same,relative viability,LC-2-ad; first compound 0.01581 µM,0.691
same,relative viability,LC-2-ad; first compound 0.05 µM,0.67
same,relative viability,LC-2-ad; first compound 0.1581 µM,0.646
same,relative viability,LC-2-ad; first compound 0.5 µM,0.436
same,relative viability,COR-L23; first compound 0.005 µM,0.376
same,relative viability,COR-L23; first compound 0.01581 µM,0.404
same,relative viability,COR-L23; first compound 0.05 µM,0.304
same,relative viability,COR-L23; first compound 0.1581 µM,0.136
same,relative viability,NCI-H1651; first compound 0.005 µM,0.585
same,relative viability,NCI-H1651; first compound 0.01581 µM,0.535
same,relative viability,NCI-H1651; first compound 0.05 µM,0.242
same,relative viability,NCI-H1651; first compound 0.1581 µM,0.489
same,relative viability,NCI-H1651; first compound 0.5 µM,0.417
same,relative viability,NCI-H2023; first compound 0.005 µM,0.434
same,relative viability,NCI-H2023; first compound 0.01581 µM,0.225
same,relative viability,NCI-H2023; first compound 0.05 µM,0.22
same,relative viability,NCI-H2023; first compound 0.1581 µM,0.101
same,relative viability,NCI-H2023; first compound 0.5 µM,0.0846
same,relative viability,LU99A; first compound 0.005 µM,0.451
same,relative viability,LU99A; first compound 0.01581 µM,0.468
same,relative viability,LU99A; first compound 0.05 µM,0.554
same,relative viability,LU99A; first compound 0.1581 µM,0.455
same,relative viability,LU99A; first compound 0.5 µM,0.375
same,relative viability,PC-14; first compound 0.005 µM,0.519
same,relative viability,PC-14; first compound 0.01581 µM,0.601
same,relative viability,PC-14; first compound 0.05 µM,0.617
same,relative viability,PC-14; first compound 0.1581 µM,0.154
same,relative viability,PC-14; first compound 0.5 µM,0.082
same,relative viability,HOP-62; first compound 0.005 µM,0.633
same,relative viability,HOP-62; first compound 0.01581 µM,0.406
same,relative viability,HOP-62; first compound 0.05 µM,0.437
same,relative viability,HOP-62; first compound 0.1581 µM,0.115
same,relative viability,HOP-62; first compound 0.5 µM,0.0936
same,relative viability,SW 1573; first compound 0.005 µM,0.606
same,relative viability,SW 1573; first compound 0.01581 µM,0.552
same,relative viability,SW 1573; first compound 0.05 µM,0.677
same,relative viability,SW 1573; first compound 0.1581 µM,0.225
same,relative viability,SW 1573; first compound 0.5 µM,0.15
same,relative viability,NCI-H838; first compound 0.005 µM,0.715
same,relative viability,NCI-H838; first compound 0.01581 µM,0.651
same,relative viability,NCI-H838; first compound 0.05 µM,0.654
same,relative viability,NCI-H838; first compound 0.1581 µM,0.515
same,relative viability,NCI-H838; first compound 0.5 µM,0.318
same,relative viability,NCI-H1993; first compound 0.005 µM,0.865
same,relative viability,NCI-H1993; first compound 0.01581 µM,0.556
same,relative viability,NCI-H1993; first compound 0.05 µM,0.751
same,relative viability,NCI-H1993; first compound 0.1581 µM,0.503
same,relative viability,NCI-H1993; first compound 0.5 µM,0.602
same,relative viability,EPLC-272H; first compound 0.005 µM,0.461
same,relative viability,EPLC-272H; first compound 0.01581 µM,0.393
same,relative viability,EPLC-272H; first compound 0.05 µM,0.398
same,relative viability,EPLC-272H; first compound 0.1581 µM,0.174
same,relative viability,EPLC-272H; first compound 0.5 µM,0.155
same,relative viability,NCI-H2126; first compound 0.005 µM,0.649
same,relative viability,NCI-H2126; first compound 0.01581 µM,0.681
same,relative viability,NCI-H2126; first compound 0.05 µM,0.448
same,relative viability,NCI-H2126; first compound 0.1581 µM,0.593
same,relative viability,NCI-H2126; first compound 0.5 µM,0.44
same,relative viability,ABC-1; first compound 0.005 µM,0.934
same,relative viability,ABC-1; first compound 0.01581 µM,0.995
same,relative viability,ABC-1; first compound 0.05 µM,0.972
same,relative viability,ABC-1; first compound 0.1581 µM,0.933
same,relative viability,ABC-1; first compound 0.5 µM,0.744
same,relative viability,NCI-H1355; first compound 0.005 µM,0.578
same,relative viability,NCI-H1355; first compound 0.01581 µM,0.638
same,relative viability,NCI-H1355; first compound 0.05 µM,0.64
same,relative viability,NCI-H1355; first compound 0.1581 µM,0.458
same,relative viability,NCI-H1355; first compound 0.5 µM,0.299
same,relative viability,NCI-H2085; first compound 0.005 µM,0.698
same,relative viability,NCI-H2085; first compound 0.01581 µM,0.79
same,relative viability,NCI-H2085; first compound 0.05 µM,0.744
same,relative viability,NCI-H2085; first compound 0.1581 µM,0.618
same,relative viability,NCI-H2085; first compound 0.5 µM,0.635
same,relative viability,HARA; first compound 0.005 µM,0.694
same,relative viability,HARA; first compound 0.01581 µM,0.44
same,relative viability,HARA; first compound 0.05 µM,0.52
same,relative viability,HARA; first compound 0.1581 µM,0.458
same,relative viability,HARA; first compound 0.5 µM,0.347
same,relative viability,HCC-15; first compound 0.005 µM,0.856
same,relative viability,HCC-15; first compound 0.01581 µM,0.784
same,relative viability,HCC-15; first compound 0.05 µM,0.775
same,relative viability,HCC-15; first compound 0.1581 µM,0.676
same,relative viability,HCC-15; first compound 0.5 µM,0.647
same,relative viability,NCI-H650; first compound 0.005 µM,0.417
same,relative viability,NCI-H650; first compound 0.01581 µM,0.315
same,relative viability,NCI-H650; first compound 0.05 µM,0.212
same,relative viability,NCI-H650; first compound 0.1581 µM,0.136
same,relative viability,NCI-H650; first compound 0.5 µM,0.112
